Assay results published in US8841292B2, “Induced hypothermia” (Weil Institute of Critical Care Medicine, priority 2011, dated 2014).

Legend:
[1] = tested on: porcine model of CPR; assay: Proposed porcine model study of cardiac arrest and resuscitation; type: in vivo, Sus scrofa; conditions: hypothesis
Excerpt: A porcine model of cardiac arrest and resuscitation in domestic pigs, weighing between 40±2 kg, is utilized for a proposed study that applicant is conducting. The porcine model is selected because (1) it has a large body mass and the timing of reduction in body temperature during hypothermia is close to that of the human. […] (3) A large animal model facilitates non-invasive measurements of myocardial function by echocardiographic methods, preserving an intact chest wall for conventional CPR, and specifically, precordial compression. (4) Our research team has had extensive experience for more than 20 years with the porcine model, under conditions of cardiac arrest and resuscitation.
Our aims are to investigate the effects of WIN55, 212-2, the cannabinoid CB1/CB2 receptor agonist, when administered immediately following resuscitation with or without physical surface body cooling on blood temperature, post resuscitation myocardial and cerebral functions, and duration of survival in our porcine model of CPR. We hypothesize that when WIN55, 212-2 is administered immediately following resuscitation, it will rapidly achieve the target blood temperature (34° C., <3 hours), therefore improving post-resuscitation myocardial and cerebral functions, and duration of survival. We further hypothesize that when WIN55, 212-2 is administered in combination with physical surface body cooling, the combination will further reduce the duration for achieving target blood temperature (<1 hour). It will therefore further improve post-resuscitation myocardial and cerebral functions, and duration of survival.
To test our hypotheses, the independent variables are the WIN55, 212-2 and WIN55, 212-2 with physical surface cooling. […]
In experiments, male domestic pigs, weighing 40±2 kg, are fasted overnight except for free access to water. […] End-tidal PC02 is monitored with an infrared analyzer (Model 01R-7101A, Nihon Kohden Corp, Tokyo, Japan). […]

[2] = tested on: cannabinoid receptors; conditions: versus other neurotransmitter and ion channels; cited from earlier work
[3] = tested on: rat model of cardiac arrest and resuscitation; assay: Rat model of cardiac arrest and resuscitation; type: in vivo
Description: The effects of WIN 55, 212-2 were investigated initially in our rat model of cardiac arrest and resuscitation. […] Ventricular fibrillation was induced and untreated for 6 mins and followed by 8 mins of CPR. Resuscitation was then attempted with defibrillation. WIN 55, 212-2 was infused intravenously 10 mins after resuscitation in a dose of 1 mg/kg/hour and continued for 6 hours. The body temperature decreased from 37 to 34° C. within 4 hours after infusion (FIG. 1).

[4] = tested on: normal rats; conditions: cited from earlier work

Row | SMILES | blockade of the effects of WIN55, 212-2 ([1]; pre-treatment with selective CB1 antagonist) | selectivity for cannabinoid receptors [2] | time after infusion for body temperature decrease to 34 ° C. ([3]; 1 mg/kg/hour i.v. infusion for 6 hours) [h] | body temperature decreased to ([3]; 1 mg/kg/hour i.v. infusion from 10 mins after resuscitation for 6 hours, from 37 ° C.) [°C] | survival ([3]; all animals that received the drug) | neurological deficits ([3]; survivors) | post resuscitation myocardial function (ejection fraction, FIG. 2) ([3]; versus controls) | time to achieve target blood temperature (34° C.) ([1]; administered immediately following resuscitation, drug alone) [h] | time to achieve target blood temperature ([1]; in combination with physical surface body cooling) [h] | body temperature reduced to ([4]; intramuscular injection, from 37 ° C.) [°C] | duration hypothermia was maintained ([4]; intramuscular injection) | hypothermia, dose dependence ([4]; intramuscular injection) | hypothermia effect with selective CB1 antagonist ([4]; selective CB1 antagonist given)
1 | Cc1c(C(=O)NN2CCCCC2)nn(-c2ccc(Cl)cc2Cl)c1-c1ccc(Cl)cc1 [SR141716A] | completely blocked | – | – | – | – | – | – | – | – | – | – | – | –
2 | Cc1c(C(=O)c2cccc3ccccc23)c2cccc3c2n1[C@H](CN1CCOCC1)CO3 [WIN 55, 212-2] | – | highly selective | ≤ 4 | 34 | more than 72 hours | minimal neurological deficits | significantly better than the controls | < 3 | < 1 | 34 | up to 5 hours | produced hypothermia in a dose-dependent manner | completely blocked
